{"source": "paper PMC10518255", "about": "“A first-in-class pan-lysyl oxidase inhibitor impairs stromal remodeling and enhances gemcitabine response and survival in pancreatic cancer” (Nature Cancer, 2023)", "key": {"[1]": {"system": "α-SMA", "assay": "Immunohistochemistry of end-point KPC tumors: myCAF marker", "format": "in vivo, mouse", "details": "for Percent coverage of aSMA positive staining: Extended Data 6B, KPC tumours at endpoint, individual FOV", "procedure": "(§1) All tissues or matrices, including patient TMAs, were fixed in 10% buffered formalin and embedded in paraffin. The 4-μm sections of samples were deparaffinized with xylene and rehydrated in graded ethanol washes. For immunohistochemistry, Bond Dewax Solution (AR9222) was used. Antigen retrieval was performed using Bond RX H2(30) protocol: HIER 30 min ER1 (citrate pH 6) OR ER2 (EDTA pH 9) at 100 °C. Slides were quenched in BOND Polymer Refine Detection (Leica Biosystems DS9800). […] Slides were digitized on an Aperio slide scanner and representative areas per tumor acquired and analyzed by researchers blinded to the conditions of the experiment.\n(§2) Extended Data Fig. 6 PXS-5505 in combination with gemcitabine in a KPC model. a. Quantification of proliferating cells (Ki67 positive nuclear staining) in KPC tumors at end point, treated as indicated. 5 fields of view (500 μm × 500 μm) per mouse and 10 mice per cohort were scored. […] Quantification of percent coverage of αSMA positive staining in KPC tumors at end point, treated as indicated. 3 fields of view (1000 μm × 1000 μm) per mouse and 10 mice per cohort were scored. […] Quantification of percent coverage of PDGFR-ß positive staining in KPC tumors at end point, treated as indicated. 3 fields of view (1000 μm × 1000 μm) per mouse and 10 mice per cohort were scored. […] Quantification of pMLC2 positive staining in stromal regions of KPC tumors at end point, treated as indicated. 3 fields of view (500 μm × 500 μm) per mouse and 10 mice per cohort were scored. […] Quantification of tumor vasculature (CD31 positive staining) in KPC tumors at end point, treated as indicated. 3 fields of view (1000 μm × 1000 μm) per mouse and 10 mice per cohort were scored. […] Quantification of STAT3 activation (pSTAT3 positive nuclear staining) in KPC tumors at end point, treated as indicated. 3 fields of view (1000 μm × 1000 μm) per mouse and 5 mice per cohort were scored. […] Scale bars = 100 μm. g Quantification of macrophage infiltration (F4/80 positive staining) in KPC tumors at end point, treated as indicated. […]"}, "[2]": {"system": "CD31", "assay": "Immunohistochemistry of end-point KPC tumors: tumor vasculature", "format": "in vivo, mouse", "details": "for Quantification of tumour vasculature (CD31 positive staining): Extended Data 6E, KPC tumours at endpoint, individual FOV", "procedure": "as §1, §2"}, "[3]": {"assay": "Plasma concentration profile after oral PXS-5505 30 mg/kg (Extended Data Fig. 3f)", "format": "in vivo, mice", "details": "for Plasma concentration: mice, individual replicates"}, "[4]": {"assay": "Microsomal stability", "format": "in vitro ADME", "details": "microsomes; In vitro (human)"}}, "note": "Several values for one entry are separate records, joined by “and”; a condition that tells them apart may be missing. Equal entries are not always repeated.", "data": [{"compound": "Nc1ccn([C@@H]2O[C@H](CO)[C@@H](O)C2(F)F)c(=O)n1", "note": "[Gem, gemcitabine]", "values": [{"measurement": "Percent coverage of aSMA positive staining", "setting": "[1]", "value": "4.1422% and 8.8428% and 3.9128% and 4.9851% and 3.7908% and 3.4102% and 13.5235% and 10.8353% and 9.6686% and 1.9907% and 2.1823% and 5.2926% and 3.0437% and 5.4036% and 4.2058% and 8.1217% and 4.3012% and 3.1567% and 3.0046% and 1.1246% and 5.0654% and 7.8034% and 8.097% and 1.0094% and 7.1387% and 7.3633% and 7.7939% and 1.1199% and 2.3003% and 3.6904%"}, {"measurement": "α-SMA positivity", "setting": "[1]; KPC tumors at end point", "value": "small decreases in positivity"}, {"measurement": "Quantification of tumour vasculature (CD31 positive staining)", "setting": "[2]", "value": "0.7299 and 0.7671 and 1.094 and 0.1238 and 0.9491 and 1.4885 and 2.0289 and 0.3988 and 1.306 and 1.1528 and 0.8514 and 0.5685 and 1.3159 and 1.5073 and 0.7452 and 2.699 and 3.9605 and 1.2028 and 1.6599 and 0.7292 and 1.2066 and 0.7182 and 1.9396 and 0.8792 and 0.4356 and 0.528 and 0.6666 and 0.9682 and 1.0035 and 1.0817"}, {"measurement": "CD31 positivity", "setting": "[2]; KPC tumors at end point", "value": "moderately reduce CD31 positivity"}]}, {"compound": "Cl.Cl.NC/C=C(\\F)CS(=O)(=O)c1cccc2cccnc12.O", "note": "[PXS-5505, (Z)-3-fluoro-4-(quinolin-8-ylsulfonyl)but-2-en-1-amine dihydrochloride monohydrate]", "values": [{"measurement": "Plasma concentration", "setting": "[3]; oral 5 mg/kg, time 0.5 hrs, 5 mg/kg", "value": "424 and 270.3 and 246.9"}, {"measurement": "Plasma concentration", "setting": "[3]; oral 5 mg/kg, time 1 hrs, 5 mg/kg", "value": "183.1 and 190 and 142.6"}, {"measurement": "Plasma concentration", "setting": "[3]; oral 5 mg/kg, time 2 hrs, 5 mg/kg", "value": "40.1 and 93 and 39.5"}, {"measurement": "Plasma concentration", "setting": "[3]; oral 5 mg/kg, time 4 hrs, 5 mg/kg", "value": "10.2 and 13.8 and 3.1"}, {"measurement": "Plasma concentration", "setting": "[3]; oral 5 mg/kg, time 8 hrs, 5 mg/kg", "value": "3.2 and 2.1 and 1.3"}, {"measurement": "Plasma concentration", "setting": "[3]; oral 10 mg/kg, time 0.5 hrs, 10 mg/kg", "value": "1283.4 and 374.2 and 656.3"}, {"measurement": "Plasma concentration", "setting": "[3]; oral 10 mg/kg, time 1 hrs, 10 mg/kg", "value": "814.4 and 337 and 493.5"}, {"measurement": "Plasma concentration", "setting": "[3]; oral 10 mg/kg, time 2 hrs, 10 mg/kg", "value": "138.5 and 336.7 and 262.8"}, {"measurement": "Plasma concentration", "setting": "[3]; oral 10 mg/kg, time 4 hrs, 10 mg/kg", "value": "113.3 and 25.7 and 30.1"}, {"measurement": "Plasma concentration", "setting": "[3]; oral 10 mg/kg, time 8 hrs, 10 mg/kg", "value": "14.4 and 5.9 and 4.9"}, {"measurement": "Plasma concentration", "setting": "[3]; oral 30 mg/kg, time 0.5 hrs, 30 mg/kg", "value": "3584.3 and 3445.6 and 4112.8"}, {"measurement": "Plasma concentration", "setting": "[3]; oral 30 mg/kg, time 1 hrs, 30 mg/kg", "value": "3340.5 and 2725.9 and 2974.4"}, {"measurement": "Plasma concentration", "setting": "[3]; oral 30 mg/kg, time 2 hrs, 30 mg/kg", "value": "1379.4 and 1690.4 and 1354.7"}, {"measurement": "Plasma concentration", "setting": "[3]; oral 30 mg/kg, time 4 hrs, 30 mg/kg", "value": "160.9 and 186.3 and 206.9"}, {"measurement": "Plasma concentration", "setting": "[3]; oral 30 mg/kg, time 8 hrs, 30 mg/kg", "value": "13.1 and 14.5 and 13.6"}, {"measurement": "half-life", "setting": "[3]; mouse, plasma, single oral dose 30 mg kg−1, read-out: calculated half-life (plasma) (converted)", "value": 1, "unit": "h"}, {"measurement": "remaining at 1 h", "setting": "[4]", "value": 97, "unit": "%"}, {"measurement": "Percent coverage of aSMA positive staining", "setting": "[1]", "value": "3.0735% and 6.2874% and 6.4326% and 3.0495% and 2.5796% and 2.9175% and 6.2269% and 8.7759% and 5.9209% and 8.6578% and 7.7662% and 8.3469% and 5.6452% and 6.7775% and 4.6186% and 7.36% and 5.232% and 2.4577% and 4.7266% and 9.579% and 5.032% and 5.1635% and 4.6717% and 8.3034% and 3.41% and 6.5089% and 4.6457% and 1.885% and 5.2516% and 5.0893%"}, {"measurement": "Quantification of tumour vasculature (CD31 positive staining)", "setting": "[2]", "value": "1.4669 and 1.052 and 0.7167 and 1.5204 and 1.7208 and 1.2357 and 2.5692 and 2.5978 and 2.6637 and 1.5089 and 2.7227 and 2.2335 and 3.0895 and 2.1825 and 1.7906 and 0.381 and 0.3483 and 0.8882 and 1.0908 and 1.998 and 0.3729 and 1.0662 and 0.7486 and 0.544 and 1.3597 and 1.732 and 1.5892 and 0.9619 and 1.2706 and 1.8307"}]}]}
